# Results: patent publication US8283361B2 (AstraZeneca AB, priority 2008, dated 2012)
# Molecular target: S. aureus GyrB ATPase (Staphylococcus aureus, UniProt P0A0K8)
# Test: biochemical
# Conditions: compound at 1 μM; one value per test if tested more than once; read-out: % Inhibition of S. aureus GyrB ATPase
# In short: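 IC50 values derive from 10-point titrations of compound (in DMSO). Phosphate formed from 250 μM ATP was quantified by acidic molybdate/malachite green after quenching.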
# Chain of S. aureus GyrB ATPase (P0A0K8 whole entry): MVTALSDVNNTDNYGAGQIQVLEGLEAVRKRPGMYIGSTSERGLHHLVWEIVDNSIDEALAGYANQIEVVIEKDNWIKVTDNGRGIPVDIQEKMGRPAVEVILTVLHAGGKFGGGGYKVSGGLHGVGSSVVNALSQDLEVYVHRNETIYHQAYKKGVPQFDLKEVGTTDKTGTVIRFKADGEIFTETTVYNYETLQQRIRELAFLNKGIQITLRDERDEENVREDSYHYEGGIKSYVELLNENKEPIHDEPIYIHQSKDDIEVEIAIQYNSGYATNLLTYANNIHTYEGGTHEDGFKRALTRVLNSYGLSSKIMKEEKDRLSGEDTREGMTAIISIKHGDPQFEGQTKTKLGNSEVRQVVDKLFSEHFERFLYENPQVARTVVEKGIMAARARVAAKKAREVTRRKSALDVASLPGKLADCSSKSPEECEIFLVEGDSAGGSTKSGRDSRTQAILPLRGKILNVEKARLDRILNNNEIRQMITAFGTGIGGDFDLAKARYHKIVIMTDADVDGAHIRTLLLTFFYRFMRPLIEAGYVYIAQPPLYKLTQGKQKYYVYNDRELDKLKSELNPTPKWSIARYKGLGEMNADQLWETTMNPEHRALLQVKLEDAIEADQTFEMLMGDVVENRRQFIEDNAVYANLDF
# Chain of S. aureus GyrB ATPase (P0AES4 whole entry, further chain): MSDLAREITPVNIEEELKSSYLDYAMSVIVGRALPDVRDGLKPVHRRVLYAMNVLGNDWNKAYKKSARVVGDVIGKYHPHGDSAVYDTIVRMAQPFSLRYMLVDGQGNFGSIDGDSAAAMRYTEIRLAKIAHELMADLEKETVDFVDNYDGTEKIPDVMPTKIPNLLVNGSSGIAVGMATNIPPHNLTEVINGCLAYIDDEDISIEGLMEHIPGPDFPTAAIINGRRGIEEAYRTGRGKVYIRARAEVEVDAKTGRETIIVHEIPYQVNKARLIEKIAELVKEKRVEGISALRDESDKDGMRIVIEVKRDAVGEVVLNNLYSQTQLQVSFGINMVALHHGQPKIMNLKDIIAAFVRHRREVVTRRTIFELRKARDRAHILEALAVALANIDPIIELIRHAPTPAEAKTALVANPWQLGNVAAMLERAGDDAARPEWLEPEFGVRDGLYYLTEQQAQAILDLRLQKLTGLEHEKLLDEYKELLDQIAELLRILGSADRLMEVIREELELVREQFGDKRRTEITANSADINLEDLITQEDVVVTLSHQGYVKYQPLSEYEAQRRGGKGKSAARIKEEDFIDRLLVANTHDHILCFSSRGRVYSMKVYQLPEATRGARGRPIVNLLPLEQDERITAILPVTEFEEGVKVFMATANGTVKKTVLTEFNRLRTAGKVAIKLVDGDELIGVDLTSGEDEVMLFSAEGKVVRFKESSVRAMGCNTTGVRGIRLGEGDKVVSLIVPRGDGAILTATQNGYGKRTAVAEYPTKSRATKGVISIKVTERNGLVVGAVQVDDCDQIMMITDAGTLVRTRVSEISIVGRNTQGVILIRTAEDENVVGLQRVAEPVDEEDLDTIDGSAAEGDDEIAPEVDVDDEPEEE
row,Structure (SMILES),inhibition at 1 µM
1,"CCNC(=O)Nc1cc(-c2nc(C(F)(F)F)cs2)c(-c2ccc3c(=O)c(C(=O)NCCCO)cn(CCC(C)C)c3c2)cn1 [Example 337, 7-{6-[(ethylcarbamoyl)amino]-4-[4-(trifluoromethyl)-1,3-thiazol-2-yl]pyridin-3-yl}-N-(3-hydroxypropyl)-1-(3-methylbutyl)-4-oxo-1,4-dihydroquinoline-3-carboxamide]",106%
2,"CCNC(=O)Nc1cc(-c2nc(C(F)(F)F)cs2)c(-c2ccc3c(=O)c(C(=O)NCCN(C)C)cn(CCC(C)C)c3c2)cn1 [Example 338, N-[2-(dimethylamino)ethyl]-7-{6-[(ethylcarbamoyl)amino]-4-[4-(trifluoromethyl)-1,3-thiazol-2-yl]pyridin-3-yl}-1-(3-methylbutyl)-4-oxo-1,4-dihydroquinoline-3-carboxamide]",99%
3,"CCNC(=O)Nc1cc(-c2nc(C(F)(F)F)cs2)c(-c2ccc3c(=O)c(C(=O)NCCN4CCOCC4)cn(CCC(C)C)c3c2)cn1 [Example 339, 7-{6-[(ethylcarbamoyl)amino]-4-[4-(trifluoromethyl)-1,3-thiazol-2-yl]pyridin-3-yl}-1-(3-methylbutyl)-N-[2-(morpholin-4-yl)ethyl]-4-oxo-1,4-dihydroquinoline-3-carboxamide]",109%
4,"CCNC(=O)Nc1cc(-c2nc(C(F)(F)F)cs2)c(-c2ccc3c(=O)c(C(=O)NCCN4CCN(C)CC4)cn(CCC(C)C)c3c2)cn1 [Example 340, 7-{6-[(ethylcarbamoyl)amino]-4-[4-(trifluoromethyl)-1,3-thiazol-2-yl]pyridin-3-yl}-1-(3-methylbutyl)-N-[2-(4-methylpiperazin-1-yl)ethyl]-4-oxo-1,4-dihydroquinoline-3-carboxamide]",93%
5,"CCNC(=O)Nc1cc(-c2nc(C(F)(F)F)cs2)c(-c2ccc3c(=O)c(C(=O)NC)cn(CC(C)C)c3c2)cn1 [Example 341, 7-{6-[(ethylcarbamoyl)amino]-4-[4-(trifluoromethyl)-1,3-thiazol-2-yl]pyridin-3-yl}-N-methyl-1-(2-methylpropyl)-4-oxo-1,4-dihydroquinoline-3-carboxamide]",99%
6,"CCNC(=O)Nc1cc(-c2nc(C(F)(F)F)cs2)c(-c2ccc3c(=O)c(C(=O)NCCO)cn(CC(C)C)c3c2)cn1 [Example 342, 7-{6-[(ethylcarbamoyl)amino]-4-[4-(trifluoromethyl)-1,3-thiazol-2-yl]pyridin-3-yl}-N-(2-hydroxyethyl)-1-(2-methylpropyl)-4-oxo-1,4-dihydroquinoline-3-carboxamide]",99%
7,"CCNC(=O)Nc1cc(-c2nc(C(F)(F)F)cs2)c(-c2ccc3c(=O)c(C(=O)NCCCO)cn(CC(C)C)c3c2)cn1 [Example 343, 7-{6-[(ethylcarbamoyl)amino]-4-[4-(trifluoromethyl)-1,3-thiazol-2-yl]pyridin-3-yl}-N-(3-hydroxypropyl)-1-(2-methylpropyl)-4-oxo-1,4-dihydroquinoline-3-carboxamide]",98%
8,"CCNC(=O)Nc1cc(-c2nc(C(F)(F)F)cs2)c(-c2ccc3c(=O)c(C(=O)NCCN(C)C)cn(CC(C)C)c3c2)cn1 [Example 344, N-[2-(dimethylamino)ethyl]-7-{6-[(ethylcarbamoyl)amino]-4-[4-(trifluoromethyl)-1,3-thiazol-2-yl]pyridin-3-yl}-1-(2-methylpropyl)-4-oxo-1,4-dihydroquinoline-3-carboxamide]",95%
9,"CCNC(=O)Nc1cc(-c2nc(C(F)(F)F)cs2)c(-c2ccc3c(=O)c(C(=O)NCCN4CCOCC4)cn(CC(C)C)c3c2)cn1 [Example 345, 7-{6-[(ethylcarbamoyl)amino]-4-[4-(trifluoromethyl)-1,3-thiazol-2-yl]pyridin-3-yl}-1-(2-methylpropyl)-N-[2-(morpholin-4-yl)ethyl]-4-oxo-1,4-dihydroquinoline-3-carboxamide]",98%
10,"CCNC(=O)Nc1cc(-c2nc(C(F)(F)F)cs2)c(-c2ccc3c(=O)c(C(=O)NCCN4CCN(C)CC4)cn(CC(C)C)c3c2)cn1 [Example 346, 7-{6-[(ethylcarbamoyl)amino]-4-[4-(trifluoromethyl)-1,3-thiazol-2-yl]pyridin-3-yl}-N-[2-(4-methylpiperazin-1-yl)ethyl]-1-(2-methylpropyl)-4-oxo-1,4-dihydroquinoline-3-carboxamide]",87%
11,"CCCn1cc(C(=O)NC)c(=O)c2ccc(-c3cnc(NC(=O)NCC)cc3-c3nc(C(F)(F)F)cs3)cc21 [Example 347, 7-{6-[(ethylcarbamoyl)amino]-4-[4-(trifluoromethyl)-1,3-thiazol-2-yl]pyridin-3-yl}-N-methyl-4-oxo-1-propyl-1,4-dihydroquinoline-3-carboxamide]",100%
12,"CCCn1cc(C(=O)NCCO)c(=O)c2ccc(-c3cnc(NC(=O)NCC)cc3-c3nc(C(F)(F)F)cs3)cc21 [Example 348, 7-{6-[(ethylcarbamoyl)amino]-4-[4-(trifluoromethyl)-1,3-thiazol-2-yl]pyridin-3-yl}-N-(2-hydroxyethyl)-4-oxo-1-propyl-1,4-dihydroquinoline-3-carboxamide]",98%
13,"CCCn1cc(C(=O)NCCCO)c(=O)c2ccc(-c3cnc(NC(=O)NCC)cc3-c3nc(C(F)(F)F)cs3)cc21 [Example 349, 7-{6-[(ethylcarbamoyl)amino]-4-[4-(trifluoromethyl)-1,3-thiazol-2-yl]pyridin-3-yl}-N-(3-hydroxypropyl)-4-oxo-1-propyl-1,4-dihydroquinoline-3-carboxamide]",108%
14,"CCCn1cc(C(=O)NCCN(C)C)c(=O)c2ccc(-c3cnc(NC(=O)NCC)cc3-c3nc(C(F)(F)F)cs3)cc21 [Example 350, N-[2-(dimethylamino)ethyl]-7-{6-[(ethylcarbamoyl)amino]-4-[4-(trifluoromethyl)-1,3-thiazol-2-yl]pyridin-3-yl}-4-oxo-1-propyl-1,4-dihydroquinoline-3-carboxamide]",96%
15,"CCCn1cc(C(=O)NCCN2CCOCC2)c(=O)c2ccc(-c3cnc(NC(=O)NCC)cc3-c3nc(C(F)(F)F)cs3)cc21 [Example 351, 7-{6-[(ethylcarbamoyl)amino]-4-[4-(trifluoromethyl)-1,3-thiazol-2-yl]pyridin-3-yl}-N-[2-(morpholin-4-yl)ethyl]-4-oxo-1-propyl-1,4-dihydroquinoline-3-carboxamide]",95%
16,"CCCn1cc(C(=O)NCCN2CCN(C)CC2)c(=O)c2ccc(-c3cnc(NC(=O)NCC)cc3-c3nc(C(F)(F)F)cs3)cc21 [Example 352, 7-{6-[(Ethylcarbamoyl)amino]-4-[4-(trifluoromethyl)-1,3-thiazol-2-yl]pyridin-3-yl}-N-[2-(4-methylpiperazin-1-yl)ethyl]-4-oxo-1-propyl-1,4-dihydroquinoline-3-carboxamide]",88%
17,"CCNC(=O)Nc1cc(-c2nc(C(F)(F)F)cs2)c(-c2ccc3c(=O)c(C(=O)NC)cn(Cc4ccccc4)c3c2)cn1 [Example 353, 1-Benzyl-7-{6-[(ethylcarbamoyl)amino]-4-[4-(trifluoromethyl)-1,3-thiazol-2-yl]pyridin-3-yl}-N-methyl-4-oxo-1,4-dihydroquinoline-3-carboxamide]",99%
18,"CCNC(=O)Nc1cc(-c2nc(C(F)(F)F)cs2)c(-c2ccc3c(=O)c(C(=O)NCCO)cn(Cc4ccccc4)c3c2)cn1 [Example 354, 1-Benzyl-7-{6-[(ethylcarbamoyl)amino]-4-[4-(trifluoromethyl)-1,3-thiazol-2-yl]pyridin-3-yl}-N-(2-hydroxyethyl)-4-oxo-1,4-dihydroquinoline-3-carboxamide]",98%
19,"CCNC(=O)Nc1cc(-c2nc(C(F)(F)F)cs2)c(-c2ccc3c(=O)c(C(=O)NCCCO)cn(Cc4ccccc4)c3c2)cn1 [Example 355, 1-Benzyl-7-{6-[(ethylcarbamoyl)amino]-4-[4-(trifluoromethyl)-1,3-thiazol-2-yl]pyridin-3-yl}-N-(3-hydroxypropyl)-4-oxo-1,4-dihydroquinoline-3-carboxamide]",87%
20,"CCNC(=O)Nc1cc(-c2nc(C(F)(F)F)cs2)c(-c2ccc3c(=O)c(C(=O)NCCN(C)C)cn(Cc4ccccc4)c3c2)cn1 [Example 356, 1-Benzyl-N-[2-(dimethylamino)ethyl]-7-{6-[(ethylcarbamoyl)amino]-4-[4-(trifluoromethyl)-1,3-thiazol-2-yl]pyridin-3-yl}-4-oxo-1,4-dihydroquinoline-3-carboxamide]",85%
21,"CCNC(=O)Nc1cc(-c2nc(C(F)(F)F)cs2)c(-c2ccc3c(=O)c(C(=O)NCCN4CCOCC4)cn(Cc4ccccc4)c3c2)cn1 [Example 357, 1-Benzyl-7-{6-[(ethylcarbamoyl)amino]-4-[4-(trifluoromethyl)-1,3-thiazol-2-yl]pyridin-3-yl}-N-[2-(morpholin-4-yl)ethyl]-4-oxo-1,4-dihydroquinoline-3-carboxamide]",87%
22,"CCNC(=O)Nc1cc(-c2nc(C(F)(F)F)cs2)c(-c2ccc3c(=O)c(C(=O)NCCN4CCN(C)CC4)cn(Cc4ccccc4)c3c2)cn1 [Example 358, 1-Benzyl-7-{6-[(ethylcarbamoyl)amino]-4-[4-(trifluoromethyl)-1,3-thiazol-2-yl]pyridin-3-yl}-N-[2-(4-methylpiperazin-1-yl)ethyl]-4-oxo-1,4-dihydroquinoline-3-carboxamide]",95%
23,"CCNC(=O)Nc1cc(-c2nc(C(F)(F)F)cs2)c(-c2ccc3c(=O)c(C(=O)NCCCO)cn(Cc4cccnc4)c3c2)cn1 [Example 359, 7-{6-[(ethylcarbamoyl)amino]-4-[4-(trifluoromethyl)-1,3-thiazol-2-yl]pyridin-3-yl}-N-(3-hydroxypropyl)-4-oxo-1-(pyridin-3-ylmethyl)-1,4-dihydroquinoline-3-carboxamide]",92%
24,"CCNC(=O)Nc1cc(-c2nc(C(F)(F)F)cs2)c(-c2ccc3c(=O)c(C(=O)NCCN4CCOCC4)cn(Cc4cccnc4)c3c2)cn1 [Example 361, 7-{6-[(ethylcarbamoyl)amino]-4-[4-(trifluoromethyl)-1,3-thiazol-2-yl]pyridin-3-yl}-N-[2-(morpholin-4-yl)ethyl]-4-oxo-1-(pyridin-3-ylmethyl)-1,4-dihydroquinoline-3-carboxamide]",97%
